From publication PMC3885546, “Structural Determinants of the 5′-Methylthioinosine Specificity of Plasmodium Purine Nucleoside Phosphorylase” (PLoS ONE, 2014)
Residue numbers refer to the chain shown, from its start.

How the values were obtained:
Experiment in all cases: Substrate kinetics, coupled assay
Type in all cases: biochemical
[1] = target: T1, PfPNP His7Ala (Plasmodium falciparum, UniProt Q8I3X4, H7A); settings: for Km / kcat: substrate = label
T1 construct: made in house; host or cells: Escherichia coli Top 10
T1 sequence (Q8I3X4 1-245 H7A): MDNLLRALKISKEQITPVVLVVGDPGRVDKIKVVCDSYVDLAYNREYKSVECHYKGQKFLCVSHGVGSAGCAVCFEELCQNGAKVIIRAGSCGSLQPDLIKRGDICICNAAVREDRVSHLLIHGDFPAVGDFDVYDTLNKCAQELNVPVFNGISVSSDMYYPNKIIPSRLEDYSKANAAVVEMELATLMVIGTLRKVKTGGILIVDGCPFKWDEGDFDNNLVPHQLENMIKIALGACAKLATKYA
Procedure: (§1) Kinetic assays were completed in 50 mM KH2PO4 at pH 7.4 measuring phosphorylysis of inosine or MTI by PNP in a coupled reaction with 60 milliunits/ml xanthine oxidase to convert hypoxanthine to uric acid. Formation of uric acid was measured at 293 nm wavelength (E293 = 12.9 mM^−1 cm^−1), [20]. In cases where activity for MTI was low, increased protein concentration (10 µg/ml) was used to check enzyme function. Assays were performed with excess substrate in the presence of inhibitors. Inhibition studies measured both initial (Ki) and slow onset inhibition (Ki*) for inhibitors. The initial onset inhibition was analyzed by using the following equation: ν ο = (k cat×S)/(K m(1+I/Ki)+S), ν ο is the steady state rate, k cat catalytic rate, S is substrate concentration, Km is Michealis constant for inosine, I is inhibitor concentration, and Ki is the equilibrium dissociation constant.

[2] = target: T2, PfPNP Tyr160Phe (Plasmodium falciparum, UniProt Q8I3X4, Y160F); settings: for Km / kcat: substrate = label
T2 construct: made in house; host or cells: Escherichia coli Top 10
T2 sequence (Q8I3X4 1-245 Y160F): T1 sequence (Q8I3X4 1-245 H7A) with A7H, Y160F
Procedure: as §1

[3] = target: T3, PfPNP V66I/V73I/Y160F (Plasmodium falciparum, UniProt Q8I3X4, V66I/V73I/Y160F); settings: for Ino/MTI kcat/Km Ratio / Km / kcat: V66I/V73I/Y160F PfPNP; for Km / kcat: substrate = label
T3 construct: made in house; host or cells: Escherichia coli Top 10
T3 sequence (Q8I3X4 1-245 V66I/V73I/Y160F): T1 sequence (Q8I3X4 1-245 H7A) with A7H, V66I, V73I, Y160F
Procedure: as §1

[4] = target: T4, PfPNP Val66Ile (Plasmodium falciparum, UniProt Q8I3X4, V66I)
T4 construct: made in house; host or cells: Escherichia coli Top 10
T4 sequence (Q8I3X4 1-245 V66I): T1 sequence (Q8I3X4 1-245 H7A) with A7H, V66I
Procedure: as §1

[5] = target: T5, PfPNP Val66Ile/Val73Ile (Plasmodium falciparum, UniProt Q8I3X4, V66I/V73I); settings: for Km / kcat: substrate = label
T5 construct: made in house; host or cells: Escherichia coli Top 10
T5 sequence (Q8I3X4 1-245 V66I/V73I): T1 sequence (Q8I3X4 1-245 H7A) with A7H, V66I, V73I
Procedure: as §1

[6] = target: T6, PfPNP Val66Ser (Plasmodium falciparum, UniProt Q8I3X4, V66S); settings: for Km / kcat: substrate = label
T6 construct: made in house; host or cells: Escherichia coli Top 10
T6 sequence (Q8I3X4 1-245 V66S): T1 sequence (Q8I3X4 1-245 H7A) with A7H, V66S
Procedure: as §1

[7] = target: T7, PfPNP Val73Ser (Plasmodium falciparum, UniProt Q8I3X4, V73S); settings: for Km / kcat: substrate = label
T7 construct: made in house; host or cells: Escherichia coli Top 10
T7 sequence (Q8I3X4 1-245 V73S): T1 sequence (Q8I3X4 1-245 H7A) with A7H, V73S
Procedure: as §1

[8] = V66I:V73I:Y160F PfPNP versus wild type

| Compound | Km [1] [µM] | kcat [1] [s⁻¹] | Km [2] [µM] | kcat [2] [s⁻¹] | Ino/MTI kcat/Km Ratio [3] | Km [3] [µM] | kcat [3] [s⁻¹] | kcat ([4]; substrate = label) [s⁻¹] | Km [5] [µM] | kcat [5] [s⁻¹] | Km [6] [µM] | kcat [6] [s⁻¹] | Km [7] [µM] | kcat [7] [s⁻¹] | further results |
| --- | --- | --- | --- | --- | --- | --- | --- | --- | --- | --- | --- | --- | --- | --- | --- |
| 5′-methylthioinosine | 2.6 ± 2 | 0.29 ± 0.21 | 44 ± 5 | 0.30 ± 0.04 | 160 | 18 ± 6 | 0.01 ± 0.00 | 1.2 ± 0.7 | 15 ± 5 | 0.91 ± 0.20 | 0.7 ± 0.7 | 0.21 ± 0.05 | 2100 | 0.02 ± 0 | decrease in kcat [3, 8]: 83 fold; increase in Km [3, 8]: 2 fold |
| OC[C@H]1O[C@@H](n2cnc3c(O)ncnc32)[C@H](O)[C@@H]1O [Inosine, inosine] | 45 ± 7 | 1.1 ± 0.5 | 2.5 ± 1.2 | 0.21 ± 0.02 | 160 | 4 ± 1.8 | 0.36 ± 0.23 | 2.0 ± 0.2 | 28 ± 11 | 4.6 ± 0.6 | 78 ± 4 | 1.4 ± 1.7 | 5 | 0.2 ± 0.0 | Ino/MTI kcat/Km Ratio [1]: 2.2; Ino/MTI kcat/Km Ratio [2]: 12; Ino/MTI kcat/Km Ratio [4]: 1.4; Km ([4]; substrate = label): 16 ± 4 µM; Ino/MTI kcat/Km Ratio [5]: 2.7; Ino/MTI kcat/Km Ratio [6]: 0.06; Ino/MTI kcat/Km Ratio [7]: 4100 |
